Data set [1] can be described thus: Serum stability in 50% human serum at 37 °C (RP-HPLC, one-phase decay half-life). Particulars: for half-life at 500 µM: human, serum (50% human serum); for proteolytic stability compared to the parent L-peptides: 50% human serum, 37° C.
Protocol: Serum stability analysis was conducted for each peptide (7×50 nmol) shown in Table 3 in 50% human serum (100 μL) at 37° C. At the end of each time point (0, 10, 30, 60, 120, 240, and 480 min), 1 M guanidine hydrochloride solution (200 μL) and ice-cold acetonitrile (600 μL) were added, and the serum-peptide solution was centrifuged at 14000 g for 10 min. The supernatant was lyophilised and redissolved in water (200 μL). All samples were analysed by RP-HPLC in the presence of phenol (50 nmol) as an internal standard, using water and acetonitrile containing 0.1% TFA, with a gradient of 10-80% acetonitrile over 30 min, and a flow rate of 1.5 mL/min. The percentage of peptide remaining was measured based on the area under curve. The percentage of peptide remaining versus time data was fitted to a non-linear one-phase exponential decay model in GraphPad Prism 9.2.0 to determine the half-life for each peptide.
The subject of another data set is fibroblasts. Description: Viability of fibroblasts by MTS assay (cytotoxicity). In kind it is cell-based, human. The procedure: FIG. 5. Effect of the endosomal escape domain HA2 and lipidation of peptide-PMO conjugates on the viability of fibroblasts determined using MTS assay. UT, untreated control.
The peptide-PMO conjugates were tested up to 10 μM which is 10-fold greater than the concentration needed to achieve a high level of activity.
(In general: Formazan colour is commonly taken as a measure of viable cells.)

Another data set relates to SMN2. The experiment in a line: SMN2 splice-switching for exon 7 inclusion by RT-qPCR in SMA Type I patient-derived fibroblasts (Example 2). Particulars: FIG. 3B/3C; 0.5 μM and 1 μM. In kind it is cell-based, human. An excerpt:
FIG. 3. (A) SMN2 pre-mRNA exon-7 skipping and production of 80-90% SMN2Δ7 mRNA transcripts. Peptide-PMO binding to Intron-splicing silencer (ISS-N1) and restoration of SMN2 splicing and production of full-length SMN2 mRNA transcripts. The positions of forward and reverse primers highlighted on full-length mRNA. (B)-(C) Effect of administration of peptides linked to PMO for SMN2 exon 7 inclusion, measured as change in the level of full length SMN2/HPRT1 in SMA patient-derived fibroblasts, each at two concentrations, 0.5 μM and 1 μM (or 1 μM and 5 μM in the case of PMO alone). UT, untreated. (B) For PMO constructs, from left to right: PMO; ApoE(141-150)-PMO; ApoE(133-150)-PMO. (C) For PMO constructs, from left to right: PMO; HA2-PMO; GALA-PMO; NLS-PMO; ApoE(141-150)-PMO; HA2-ApoE(141-150)-PMO; GALA-ApoE(141-150)-PMO; NLS-ApoE(141-150)-PMO; H4-ApoE(141-150)-PMO; A4-ApoE(141-150)-PMO. *P<0.05,**P<0.001, ***P<0.0001 cf. Untreated (control) and PMO (1 and 5 μM); #P<0.001 cf. GALA-/NLS-/H4-ApoE(141-150)-PMO (1 μM), ^<0.001 cf. ApoE(133-150)-PMO (0.5 and 1 μM), ^OP<0.001 cf. ApoE(141-150)-PMO (1 μM), ^&P<0.05 cf.
The inventors then evaluated cellular uptake and activity of these peptide-PMO conjugates in SMA Type I patient-derived fibroblasts with two copies of SMN2. Efficiency of uptake was assessed by RT-qPCR using SMN2 splice-switching for exon 7 inclusion (see FIG. 3A).
SMA Type I patient-derived fibroblasts (SMN2^+/+, GM03813, Coriell Cell Repositories) were maintained in Dulbecco's Modified Eagle's Medium (DMEM), supplemented with 10% foetal bovine serum (FBS), 1% Penicillin/Streptomycin and 1% L-glutamine (L-glu) at 37° C. Cells were plated in 6-well plates at a density of 3×10^5/well in 6 well plates one day prior to treatment with PMO and peptide-PMO conjugates. Cells used were from passage 8-22. PMO and the peptide-PMO conjugates were dissolved in nuclease-free water and diluted to appropriate concentrations in Opti-MEM reduced serum medium. Cells were treated for 4 hrs at 37° C. The transfection medium was then removed and replaced with growth medium in which the cells were incubated for 20 hrs.
Cells were washed with PBS and total cellular RNA was extracted using Trizol (TRI Reagent®, Sigma) according to the manufacturer's instructions (Life Technologies). 400 ng purified RNA was reverse transcribed into cDNA using BioRad iScript Reverse Transcription Supermix kit according to the manufacturer's instructions. The reverse transcription was performed using the Veriti Thermal Cycler (ThermoFisher Scientific) with the thermal cycling conditions: 25° C. for 5 min, 46° C. for 20 min, 95° C. for 1 min followed by a 4° C. holding period.
Quantitative PCR (20 ng cDNA/well) was carried out in a 96-well plate in triplicate using SsoAdvanced Universal SYBR Green Supermix on a Biorad CFX96 Touch™ Real-Time PCR detection system. The amplification was carried out using full-length SMN2-specific primers: Ex-6 Forward 5′-[…]-3′ (SEQ ID NO:10) and Ex7-8 reverse 5′[…]-3′ (SEQ ID NO:11). Human HPRT1 was used as the internal reference gene with forward primer sequence 5′-[…]-3′ (SEQ ID NO:12) and reverse primer sequence 5′-[…]-3′ (SEQ ID NO:13). The ΔΔCt method was used to correct the Ct values against the HPRT1 Ct values. The values obtained were normalised to the untreated control values which were set to 1. Statistical analysis was carried out using one-way ANOVA with post-hoc Bonferroni for multiple groups comparison (GraphPad Prism V.8, 2018). All data are expressed as mean±SEM from at least three independent experiments with p<0.05 considered significant.

Data set [2] relates to SMA patient-derived fibroblasts. Description: Confocal fluorescence uptake of Cy5-labelled peptide-PMO conjugates in SMA fibroblasts. In kind it is cell-based, human. Particulars: 1 μM, 1 hr at 37° C. The protocol:
FIG. 4. Representative confocal fluorescence microscopy images of SMA patient-derived fibroblasts treated with 1 μM of Cy5-labelled: (A) ApoE(141-150)-PMO; (B) HA2-ApoE(141-150)-PMO; (C) ApoE(133-150)-PMO; and (D) HA2-ApoE(133-150)-PMO, for 1 hr at 37° C.
SMA fibroblasts (6.0×10^4 cells/well) were plated onto a p-Slide 4 Well Ph+ Glass Bottom chamber slides precoated with poly-L-ornithine (Ibidi GmbH). After 24 hr, cells were incubated for 1 hr with Cy5-labelled peptide-PMO conjugates (1 μM or 5 μM) diluted in serum free Opti-MEM. At 10 min to end of 1 hr incubation, Hoechst (1:1000 dilution) was added to each well.

Square brackets hold non-standard residues; d marks the D form. Side chains are listed from the residue outwards. Peptide text beside a SMILES is read from it. * marks the point of attachment. Myristoyl = CCCCCCCCCCCCCC(=O)*; PMO = not defined here; AEEA = NCCOCCOCC(=O)O; Ahx = NCCCCCC(=O)O; Mpa = O=C(O)CCS

The term half-life denotes the time needed for the level to fall by half in the phase considered. Lower therefore signals rapid decline.

The molecule `CC[C@H](C)[C@H](NC(=O)[C@H](C)NC(=O)[C@H](Cc1c[nH]cn1)NC(=O)[C@H](Cc1ccccc1)NC(=O)[C@H](CC(C)C)NC(=O)CNC(=O)COCCOCCNC(=O)CCS)C(=O)N[C@@H](C)C(=O)N[C@@H](Cc1c[nH]cn1)C(=O)N[C@@H](Cc1ccccc1)C(=O)N[C@H](C(=O)N[C@@H](Cc1c[nH]cn1)C(=O)NCC(=O)NCC(=O)N[C@@H](Cc1c[nH]c2ccccc12)C(=O)N[C@@H](Cc1c[nH]cn1)C(=O)NCCOCCOCC(=O)N[C@@H](CC(C)C)C(=O)N[C@@H](CCCNC(=N)N)C(=O)N[C@H](C(=O)N[C@@H](CCCNC(=N)N)C(=O)N[C@@H](CC(C)C)C(=O)N[C@@H](C)C(=O)N[C@@H](CO)C(=O)N[C@@H](Cc1c[nH]cn1)C(=O)N[C@@H](CC(C)C)C(=O)N[C@@H](CCCNC(=N)N)C(=O)N[C@@H](CCCCN)C(=O)N[C@@H](CC(C)C)C(=O)N[C@@H](CCCNC(=N)N)C(=O)N[C@@H](CCCCN)C(=O)N[C@@H](CCCNC(=N)N)C(=O)N[C@@H](CC(C)C)C(=O)N[C@@H](CC(C)C)C(=O)N[C@@H](CCCNC(=N)N)C(=O)O)C(C)C)[C@@H](C)CC` [TPA-HA2-ApoE(133-150), TPA-mPEG-GLFHAIAHFIHGGWH-mPEG-LR VRLASHLRKLRKRLLR] ([Mpa][AEEA]GLFHAIAHFIHGGWH[AEEA]LRVRLASHLRKLRKRLLR-OH) had a half-life at 500 µM in data set [1] of 1.1 h.
Regarding “Myr-GLFHAIAHFIHGGWH-X-LRKLRKRLLR-X-C-PMO ({Myristoyl-Gly-Leu-Phe-H2N-Ala-Ile-Ala-H2N-Phe-Ile-H2N-Gly-Gly-Trp-H2N-Ahx}-LRKLRKRLLR[Ahx]C-{PMO}; reading uncertain; also: printed as Myr-GLFHAIAHFIHGGWH-X-LRKLRKRLLR-X-C-PMO; UniProt P02649 159-168, looked up, fragment) [Myr-HA2-ApoE(141-150)-PMO]”, the “effect on cell viability” value is on record as “decrease in cell viability” in the data set with fibroblasts (at 10 μM) and “None of the P-PMO conjugates had a significant effect on cell viability” with fibroblasts (up to 5 μM).
Consider `CC(C)C[C@@H](NC(=O)[C@@H](CCCNC(=N)N)NC(=O)[C@H](NC(=O)[C@@H](CCCNC(=N)N)NC(=O)[C@@H](CC(C)C)NC(=O)[C@@H](C)NC(=O)[C@@H](CO)NC(=O)[C@@H](Cc1c[nH]cn1)NC(=O)[C@@H](CC(C)C)NC(=O)[C@@H](CCCNC(=N)N)NC(=O)[C@@H](CCCCN)NC(=O)[C@@H](CC(C)C)NC(=O)[C@@H](CCCNC(=N)N)NC(=O)[C@@H](CCCCN)NC(=O)[C@@H](CCCNC(=N)N)NC(=O)[C@@H](CC(C)C)NC(=O)[C@@H](CC(C)C)NC(=O)[C@@H](CCCNC(=N)N)NC(=O)COCCOCCNC(=O)CCS)C(C)C)C(=O)O` [RI TPA-ApoE(133-150), TPA-mPEG-rllrkrlkrlhsalrvrl] ([Mpa][AEEA][dR][dL][dL][dR][dK][dR][dL][dK][dR][dL][dH][dS][dA][dL][dR][dV][dR][dL]-OH), for which, in data set [1], the “proteolytic stability compared to the parent L-peptides” value was “significantly higher proteolytic stability” and the half-life at 500 µM is 11.2 h.
In the same order, the values of `CC[C@@H](C)[C@@H](NC(=O)[C@@H](C)NC(=O)[C@@H](Cc1c[nH]cn1)NC(=O)[C@@H](Cc1ccccc1)NC(=O)[C@H](NC(=O)[C@@H](Cc1c[nH]cn1)NC(=O)CNC(=O)CNC(=O)[C@@H](Cc1c[nH]c2ccccc12)NC(=O)[C@@H](Cc1c[nH]cn1)NC(C)=O)[C@H](C)CC)C(=O)N[C@H](C)C(=O)N[C@H](Cc1c[nH]cn1)C(=O)N[C@H](Cc1ccccc1)C(=O)N[C@H](CC(C)C)C(=O)NCC(=O)NCCOCCOCC(=O)N[C@@H](CCCCNC(=O)COCCOCCNC(=O)CCS)C(=O)NCCOCCOCC(=O)N[C@H](CCCNC(=N)N)C(=O)N[C@H](CC(C)C)C(=O)N[C@H](CC(C)C)C(=O)N[C@H](CCCNC(=N)N)C(=O)N[C@H](CCCCN)C(=O)N[C@H](CCCNC(=N)N)C(=O)N[C@H](CC(C)C)C(=O)N[C@H](CCCCN)C(=O)N[C@H](CCCNC(=N)N)C(=O)N[C@H](CC(C)C)C(=O)N[C@H](Cc1c[nH]cn1)C(=O)N[C@H](CO)C(=O)N[C@H](C)C(=O)N[C@H](CC(C)C)C(=O)N[C@H](CCCNC(=N)N)C(=O)N[C@@H](C(=O)N[C@H](CCCNC(=N)N)C(=O)N[C@H](CC(C)C)C(=O)O)C(C)C` [RI Br-HA2-(TPA)-ApoE(133-150), Ac-hwgghifhaiahflg-mPEG-K(mPEG-TPA)-mPEG-rllrkrlkrlhsalrvrl] (Ac-[dH][dW]GG[dH][dI][dF][dH][dA][dI][dA][dH][dF][dL]G[AEEA]K([AEEA-Mpa])[AEEA][dR][dL][dL][dR][dK][dR][dL][dK][dR][dL][dH][dS][dA][dL][dR][dV][dR][dL]-OH) are “significantly higher proteolytic stability” and 1.6 h.
“Myr-GLFHAIAHFIHGGWH-X-LRVRLASHLRKLRKRLLR-X-C-PMO [Myr-HA2-ApoE(133-150)-PMO]”: the results for the “effect on cell viability” value in the data set with fibroblasts (at 10 μM) and in the data set with fibroblasts (up to 5 μM) were “decrease in cell viability” and “None of the P-PMO conjugates had a significant effect on cell viability”, respectively.
For the molecule “Ac-LRKLRKRLLR-X-C-PMO [ApoE(141-150)-PMO]”, the “exon-7 inclusion activity, dependence on concentration” value in the data set on SMN2 is reported as “concentration-dependent increase in activity”. Moreover, the intracellular fluorescence pattern entry in data set [2] is “punctate intracellular fluorescence pattern”.
`CC[C@@H](C)[C@@H](NC(=O)[C@@H](C)NC(=O)[C@@H](Cc1c[nH]cn1)NC(=O)[C@@H](Cc1ccccc1)NC(=O)[C@H](NC(=O)[C@@H](Cc1c[nH]cn1)NC(=O)CNC(=O)CNC(=O)[C@@H](Cc1c[nH]c2ccccc12)NC(=O)[C@@H](Cc1c[nH]cn1)NC(C)=O)[C@H](C)CC)C(=O)N[C@H](C)C(=O)N[C@H](Cc1c[nH]cn1)C(=O)N[C@H](Cc1ccccc1)C(=O)N[C@H](CC(C)C)C(=O)NCC(=O)NCCOCCOCC(=O)N[C@@H](CCCCNC(=O)COCCOCCNC(=O)CCS)C(=O)NCCOCCOCC(=O)N[C@H](CCCNC(=N)N)C(=O)N[C@H](CC(C)C)C(=O)N[C@H](CC(C)C)C(=O)N[C@H](CCCNC(=N)N)C(=O)N[C@H](CCCCN)C(=O)N[C@H](CCCNC(=N)N)C(=O)N[C@H](CC(C)C)C(=O)N[C@H](CCCCN)C(=O)N[C@H](CCCNC(=N)N)C(=O)N[C@H](CC(C)C)C(=O)O` [RI Br-HA2-(TPA)-ApoE(141-150), Ac-hwgghifhaiahflg-mPEG-K(mPEG-TPA)-mPEG-rllrkrlkrl] (Ac-[dH][dW]GG[dH][dI][dF][dH][dA][dI][dA][dH][dF][dL]G[AEEA]K([AEEA-Mpa])[AEEA][dR][dL][dL][dR][dK][dR][dL][dK][dR][dL]-OH) showed a half-life at 500 µM in data set [1] of 0.3 h.
